The source of these data is patent US12708659B2, “Polyphenolic insulin” (KIMBALL WESTWARD LLC, priority 2020, dated 2026).

One series concerns the target insulin (Homo sapiens, UniProt P01308). To be noted: does not require zinc ions; read-out: dissociation constant Kd of dimerization; cited from earlier work.
Series [1] is described as follows: Preservation of quercetin-containing insulin hexameric complexes by small phenolic compounds. It is filed as physicochemical. To be noted: as small phenolic compound.

The Kd is the constant that tells how readily two partners part at equilibrium.

insulin, sequence (P01308 25-54 limits assumed): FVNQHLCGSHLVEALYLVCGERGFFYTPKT
insulin, sequence (P01308 90-110 limits assumed): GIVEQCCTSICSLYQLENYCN

Take “insulin: anabolic hormone of A-chain and B-chain linked by disulfide bonds”: the Kd with insulin was ~10 µM. In the case of `O=C([O-])c1ccccc1.[Na+]` [sodium benzoate], the “preservation of insulin hexameric complexes that contained quercetin” value in series [1] was “better preserve insulin hexameric complexes”.

`O=C(O)c1ccc(O)cc1` [4-hydroxybenzoic acid]: the “preservation of insulin hexameric complexes that contained quercetin” value in series [1] is listed as “better preserve insulin hexameric complexes”.
